# Entries after “also recorded” stand apart in the source; their conditions may differ.
# What was measured:
# IA memory in the rat = test: Inhibitory Avoidance (IA) task, retention latency in normal rats; type: in vivo
# Description: An exemplary passive avoidance test utilizes an apparatus that consists of a lit chamber that can be separated from a dark chamber by a sliding door. At training, the animal is placed in the lit chamber for some period of time, and the door is opened. The animal moves to the dark chamber after a short delay—the latency—that is recorded. Upon entry into the dark chamber, the door is shut closed and a foot shock is delivered. Retention of the experience is determined after various time intervals, e.g., 24 or 48 hours, by repeating the test and recording the latency. The protocol is one of many variants of the passive avoidance procedures (for review, see Rush (1988) Behav Neural Biol 50:255).
# The Inhibitory Avoidance (IA) task is a well-studied behavioral paradigm which can provide the researcher with a consistent and long-lasting measure of memory. The paradigm consists of one training trial and one retention trial. Test articles may be administered to the rats either before or after training. Improved memory, as a result of test compound administration, is evident as increased latency on the retention trial. The objective of the following experiments was to investigate the effects of methylphenidate on IA memory in the rat.
# In this experiment, rats were injected with three different doses of methylphenidate thirty minutes prior to training on the IA task.
# Rats were injected with 5 mg/kg of methylphenidate and trained on the IA task.
# In this experiment, the time of drug administration was varied in order to determine the optimal pre-training drug administration time.
# This experiment was conducted in order to determine whether the enhanced retention observed in Experiment 2 was long-lasting. Rats received a second retention test one week after the first retention test. No additional training or drug was administered to the animals in the interim period.
# In the next experiment, we investigated whether the performance of amnesic rats could be improved by administration of methylphenidate. In this experiment, control rats and rats with lesions of the fornix received injections of either saline or methylphenidate (5 mg/kg), and one hour later, were tested on the IA task.
# [1] = system: rats with lesions of the fornix; test: Inhibitory Avoidance (IA) task in rats with lesions of the fornix (amnesic rats); type: in vivo, rat; details: 5 mg/kg, tested one hour after injection
# From the text: Applicants have previously described an animal model for studying fornix-mediated memory consolidation. See, for example, Taubenfield et al., Supra. The fornix-lesioned animals can be used for drug screening, e.g., to identify dosages of the subject compositions which enhance memory consolidation. The lesioned mammal can have a lesion of the fornix or a related brain structure that disrupts memory consolidation (e.g., perirhinal cortex, amygdala, medial septal nucleus, locus coeruleus, hippocampus, mammillary bodies). Lesions in the mammal can be produced by mechanical or chemical disruption. For example, the fornix lesion can be caused by surgical ablation, electrolytic, neurotoxic and other chemical ablation techniques, or reversible inactivation such as by injection of an anesthetic, e.g., tetrodotoxin or lidocaine, to temporarily arrest activity in the fornix.
# In one embodiment, the animal can be a rat. Briefly, the animals are anesthetized, e.g., with intraperitoneal injections of a ketamine-xylazine mixture and positioned in a Kopf stereotaxic instrument. A sagittal incision is made in the scalp and a craniotomy is performed extending 2.0 mm posterior and 3.0 mm lateral from Bregma. […]
compound,measurement,setting,value
"COC(=O)C(c1ccccc1)C1CCCCN1 (stereo not drawn) [methylphenidate, methyl α-phenyl-2-piperidineacetate]",IA performance of normal rats (FIG. 3),"IA memory in the rat; normal control rats, 5 mg/kg, tested one hour after injection, post hoc p<0.05, 5 mg/kg",dramatically enhanced; also recorded: significantly enhanced relative to all other experimental groups
same,retention on the IA task (FIG. 1),"IA memory in the rat; rats, 5 mg/kg injected thirty minutes prior to training",improved retention
same,optimal pre-training drug administration time,"IA memory in the rat; rats, 5 mg/kg, time of administration varied",most effective when administered to the rats one hour prior to training
same,"retention of the IA task, verifying experiment (FIG. 2)","IA memory in the rat; rats, 5 mg/kg, unpaired t-test p<0.03",significantly improved retention
same,retention on the IA task (FIG. 1),"IA memory in the rat; rats, 10 mg/kg injected thirty minutes prior to training",no effect
same,retention on the IA task (FIG. 1),"IA memory in the rat; rats, 15 mg/kg injected thirty minutes prior to training",no effect
same,"long-term retention, second retention test","IA memory in the rat; rats, one week after the first retention test, no additional training or drug, t(54)=2.358, p<0.0220",still significantly enhanced
same,IA performance of fornix lesion rats (FIG. 3),[1],"appeared to improve; also recorded: not significantly different from normal, saline injected animals"

# Source: patent US20030229122A1, “Use of methylphenidate compounds to enhance memory” (Sention, Inc., priority 2000, published 2003)
